Tested on: K562 nude mice transplanted tumor
Test: Inhibition of growth of K562 nude mice transplanted tumor (pre-trial, experiment 1, experiment 2)
Type: in vivo, Balb/c nude mice
Details: cyclophosphamide 10 ml/kg intraperitoneal; for tumor sizes: n=6; for inhibition ratio: of tumor mass
Text: 2.4 K562 cell: primary K562 cell is derived from bone marrow of a patient having leukemia, introduced by Blood Research Institute from abroad, stored and passaged in Pathologic Cell Bank; cultured in RPMI1640 medium (comprising 10% fetal bovine serum).
2.6 experimental animal: Balb/c nude mice, 4~5 weeks old, weight: 17~20 g, gender: half male and half female. Experimental Animal Institute of the Chinese Academy of Medical Sciences, certification number of experimental animals: SCXK (JING) 2005-0013.
3.1.1 Balb/c nude mice were subjected to 3.0Gy whole-body irradiation, after subcutaneous inoculation of primary K562 cells. About 4 weeks after inoculation, tumor masses in growing were removed and transplanted into […], and this process was repeated for 2~3 passages to establish high oncogenic K562 cell line.
3.1.2 Nude mice were subjected to 3.0Gy whole-body irradiation, after subcutaneous inoculation of the K562 cells. One week after inoculation, nude mice with visible tumors were divided into the following 4 groups each consisting of 6 animals. The following dosages were administered for 3 continuous weeks, with 7 doses per week, a total of 21 doses.
Model control group: intraperitoneal injection of 20% aqueous solution of excipient at 0.2 ml/animal.
High dosage group: intraperitoneal injection of artemether at 150 ml/kg.
Middle dosage group: intraperitoneal injection of artemether at 100 ml/kg.
Low dosage group: intraperitoneal injection of artemether at 50 ml/kg.
Nude mice were subjected to a 3.0Gy whole-body irradiation, after subcutaneous inoculation of the K562 cells. One week after inoculation, nude mice with visible tumors were divided into the following 5 groups each consisting of 6 animals. The following dosages were administered for 3 continuous weeks, with 5 doses per week, a total of 15 doses.
Positive control group: intraperitoneal injection of cyclophosphamide at 10 ml/kg.
High dosage group: intraperitoneal injection of artemether at 100 ml/kg.
Middle dosage group: intraperitoneal injection of artemether at 60 ml/kg.
Low dosage group: intraperitoneal injection of artemether at 40 ml/kg.
Nude mice were subjected to a 3.0Gy whole-body irradiation, after subcutaneous inoculation of the K562 cells. One week after inoculation, nude mice with visible tumors were divided into the following 5 groups each consisting of 6 nude mice.
Model control group: intraperitoneal injection of 20% solution of excipient at 0.2ml/animal. The dosage was administered for 3 weeks, with 7 doses per week, a total of 21 doses.
Positive control group: intraperitoneal injection of cyclophosphamide at 10 ml/kg. The dosage was administered for 3 weeks, with 7 doses per week, a total of 21 doses.
High dosage group: intraperitoneal injection of artemether at 100 ml/kg. The dosage was administered for 3 weeks, with 5 doses per week, a total of 15 doses.
Middle dosage group: intraperitoneal injection of artemether at 60 ml/kg. The dosage was administered for 3 weeks, with 7 doses per week, a total of 21 doses.
Low dosage group: intraperitoneal injection of artemether at 40 ml/kg. The dosage was administered for 3 weeks, with 7 doses per week, a total of 21 doses.

[1] = experiment 1, 15 doses, 4 weeks after inoculation
[2] = experiment 2, 21 doses, 4 weeks after inoculation

SMILES: O=P1(N(CCCl)CCCl)NCCCO1 (stereo not drawn) [Cyclophosphamide, cyclophosphamide]
- tumor sizes (experiment 1, 15 doses in 3 weeks, 1 week after inoculation): 48.1±10.9 mm3
- tumor sizes (experiment 1, 15 doses in 3 weeks, 2 weeks after inoculation): 104.9±60.3 mm3
- tumor sizes (experiment 1, 15 doses in 3 weeks, 3 weeks after inoculation): 373.7±319.9 mm3
- tumor sizes (experiment 1, 15 doses in 3 weeks, 4 weeks after inoculation): 799.0±571.3 mm3
- tumor mass [1]: 651.7 ± 544.3 mg
- tumor sizes (experiment 2, 21 doses in 3 weeks, 1 week after inoculation): 30.7±10.9 mm3
- tumor sizes (experiment 2, 21 doses in 3 weeks, 2 weeks after inoculation): 77.3±49.8 mm3
- tumor sizes (experiment 2, 21 doses in 3 weeks, 3 weeks after inoculation): 203.1 ±94.7 mm3
- tumor sizes (experiment 2, 21 doses in 3 weeks, 4 weeks after inoculation): 327.0±206.8 mm3
- tumor mass [2]: 241.7 ± 176.8 mg
- inhibition ratio [1]: 39.2%
- inhibition ratio [2]: 83.3%
